What was measured:
[1] = target: BMP-2-inducible protein kinase (Homo sapiens) (UniProt Q9NSY1); test: Inhibition of recombinant human BIKe assessed as residual activity at 10 uM using peptide as substrate incubated for 120 mins in presence of [gamma-33ATP] by scintillation counting based radiometry assay relative to control
[2] = target: Dual specificity protein kinase CLK1 (Homo sapiens) (UniProt P49759); test: Inhibition of recombinant human CLK1 (130 to end residues) assessed as residual activity at 10 uM using ERMRPRKRQGSVRRRV as substrate incubated 40 mins in presence of [gamma-33ATP] by scintillation counting based radiometry assay relative to control
[3] = target: Myotonin-protein kinase (Homo sapiens) (UniProt Q09013); test: Inhibition of recombinant human DMPK (1 to 549 residues) assessed as residual activity at 10 uM using KKSRGDYMTMQIG as substrate at 40 mins in presence of [gamma-33ATP] by scintillation counting based radiometry assay relative to control
[4] = target: Ephrin type-A receptor 8 (Homo sapiens) (UniProt P29322); test: Inhibition of recombinant human EphA8 (615 to 911 residues) assessed as residual activity at 10 uM using KTFCGTPEYLAPEVRREPRILSEEEQEMFRDFDYIADWC as substrate at 40 mins in presence of [gamma-33ATP] by scintillation counting based radiometry assay relative to control
[5] = target: G protein-coupled receptor kinase 6 (Homo sapiens) (UniProt P43250); test: Inhibition of recombinant full length human GRK6 assessed as residual activity at 10 uM using casein as substrate at 40 mins in presence of [gamma-33ATP] by scintillation counting based radiometry assay relative to control
G protein-coupled receptor kinase 6 (Homo sapiens), sequence (P43250 whole entry, looked up): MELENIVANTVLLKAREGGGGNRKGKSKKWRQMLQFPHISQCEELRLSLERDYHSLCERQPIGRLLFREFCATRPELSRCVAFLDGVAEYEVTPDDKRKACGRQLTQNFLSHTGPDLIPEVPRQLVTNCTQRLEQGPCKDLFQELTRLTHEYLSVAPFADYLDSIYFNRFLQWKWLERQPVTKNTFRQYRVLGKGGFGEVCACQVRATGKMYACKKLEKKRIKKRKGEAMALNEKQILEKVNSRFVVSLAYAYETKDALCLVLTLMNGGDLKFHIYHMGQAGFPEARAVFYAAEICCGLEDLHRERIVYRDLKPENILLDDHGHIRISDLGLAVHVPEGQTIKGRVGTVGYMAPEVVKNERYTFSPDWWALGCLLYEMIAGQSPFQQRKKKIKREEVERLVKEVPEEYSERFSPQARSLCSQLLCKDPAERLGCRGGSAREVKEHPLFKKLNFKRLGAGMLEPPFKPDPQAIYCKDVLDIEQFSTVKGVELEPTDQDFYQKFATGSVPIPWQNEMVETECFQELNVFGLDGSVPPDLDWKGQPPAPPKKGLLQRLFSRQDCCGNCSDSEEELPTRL

[6] = target: Rhodopsin kinase GRK7 (Homo sapiens) (UniProt Q8WTQ7); test: Inhibition of recombinant full length human GRK7 assessed as residual activity at 10 uM using casein as substrate at 40 mins in presence of [gamma-33ATP] by scintillation counting based radiometry assay relative to control
[7] = target: LIM domain kinase 1 (Homo sapiens) (UniProt P53667); test: Inhibition of recombinant human LIMK1 (285 to 638 residues) assessed as residual activity at 10 uM using cofilin as substrate after 40 mins in presence of [gamma-33ATP] by scintillation counting based radiometry assay relative to control
[8] = target: Misshapen-like kinase 1 (Homo sapiens) (UniProt Q8N4C8); test: Inhibition of recombinant human MINK (1 to 320 residues) assessed as residual activity at 10 uM using myelin basic protein as substrate incubated for 40 mins in presence of [gamma-33ATP by scintillation counting based radiometry assay relative to control
[9] = target: NUAK family SNF1-like kinase 2 (Homo sapiens) (UniProt Q9H093); test: Inhibition of recombinant human full length NUAK2 assessed as residual activity at 10 uM using KKKVSRSGLYRSPSMPENLNRPR as substrate measured after 40 mins in presence of [gamma33P]ATP by scintillation counting based radiometry assay relative to control
[10] = target: Eukaryotic translation initiation factor 2-alpha kinase 3 (Homo sapiens) (UniProt Q9NZJ5); test: Inhibition of human PEK (536 to end residues) assessed as residual activity at 10 uM using RSRSRSRSRSRSRSR as substrate measured after 40 mins in presence of [gamma33P]ATP by scintillation counting based radiometry assay relative to control
Eukaryotic translation initiation factor 2-alpha kinase 3 (Homo sapiens), sequence (Q9NZJ5 whole entry): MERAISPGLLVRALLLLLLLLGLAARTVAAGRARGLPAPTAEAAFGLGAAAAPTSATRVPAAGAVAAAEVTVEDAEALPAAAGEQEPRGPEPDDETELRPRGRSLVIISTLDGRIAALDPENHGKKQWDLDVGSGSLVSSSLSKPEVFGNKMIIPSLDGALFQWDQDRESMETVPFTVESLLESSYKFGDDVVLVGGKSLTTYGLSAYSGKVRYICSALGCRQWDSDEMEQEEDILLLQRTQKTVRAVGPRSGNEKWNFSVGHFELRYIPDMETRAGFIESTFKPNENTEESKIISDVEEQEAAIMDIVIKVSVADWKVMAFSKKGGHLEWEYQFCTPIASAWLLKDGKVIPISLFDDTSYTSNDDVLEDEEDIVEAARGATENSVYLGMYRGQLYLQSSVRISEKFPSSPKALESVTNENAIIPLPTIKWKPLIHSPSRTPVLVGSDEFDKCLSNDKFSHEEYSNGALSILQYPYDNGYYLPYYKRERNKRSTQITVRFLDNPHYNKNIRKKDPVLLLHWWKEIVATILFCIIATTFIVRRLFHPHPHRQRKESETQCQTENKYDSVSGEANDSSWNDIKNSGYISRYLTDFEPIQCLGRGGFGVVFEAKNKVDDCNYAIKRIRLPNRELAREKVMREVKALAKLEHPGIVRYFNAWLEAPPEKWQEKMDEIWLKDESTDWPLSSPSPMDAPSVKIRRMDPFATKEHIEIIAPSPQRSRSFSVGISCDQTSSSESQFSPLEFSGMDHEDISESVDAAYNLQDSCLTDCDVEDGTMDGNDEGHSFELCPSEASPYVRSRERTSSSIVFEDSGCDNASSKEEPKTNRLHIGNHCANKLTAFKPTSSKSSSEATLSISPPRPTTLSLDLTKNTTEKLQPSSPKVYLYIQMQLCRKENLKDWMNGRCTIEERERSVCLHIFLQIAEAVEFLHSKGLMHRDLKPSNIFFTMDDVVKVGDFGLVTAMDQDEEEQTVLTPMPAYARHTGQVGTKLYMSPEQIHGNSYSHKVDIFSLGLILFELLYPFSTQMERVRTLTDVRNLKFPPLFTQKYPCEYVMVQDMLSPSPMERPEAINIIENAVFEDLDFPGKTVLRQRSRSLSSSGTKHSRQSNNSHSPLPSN

[11] = target: Protein kinase C alpha type (Homo sapiens) (UniProt P17252); test: Inhibition of recombinant human full length PKCalpha assessed as residual activity at 10 uM using histone H1 as substrate incubated for 40 mins in presence of [gamma33P]ATP by scintillation counting based radiometry assay relative to control
[12] = target: Protein kinase C beta type (Homo sapiens) (UniProt P05771); test: Inhibition of recombinant human PKCbeta2 (2 to end residues) assessed as residual activity at 10 uM using histone H1 as substrate incubated for 40 mins in presence of [gamma33P]ATP by scintillation counting based radiometry assay relative to control
Protein kinase C beta type (Homo sapiens), sequence (P05771 2-671 limits assumed): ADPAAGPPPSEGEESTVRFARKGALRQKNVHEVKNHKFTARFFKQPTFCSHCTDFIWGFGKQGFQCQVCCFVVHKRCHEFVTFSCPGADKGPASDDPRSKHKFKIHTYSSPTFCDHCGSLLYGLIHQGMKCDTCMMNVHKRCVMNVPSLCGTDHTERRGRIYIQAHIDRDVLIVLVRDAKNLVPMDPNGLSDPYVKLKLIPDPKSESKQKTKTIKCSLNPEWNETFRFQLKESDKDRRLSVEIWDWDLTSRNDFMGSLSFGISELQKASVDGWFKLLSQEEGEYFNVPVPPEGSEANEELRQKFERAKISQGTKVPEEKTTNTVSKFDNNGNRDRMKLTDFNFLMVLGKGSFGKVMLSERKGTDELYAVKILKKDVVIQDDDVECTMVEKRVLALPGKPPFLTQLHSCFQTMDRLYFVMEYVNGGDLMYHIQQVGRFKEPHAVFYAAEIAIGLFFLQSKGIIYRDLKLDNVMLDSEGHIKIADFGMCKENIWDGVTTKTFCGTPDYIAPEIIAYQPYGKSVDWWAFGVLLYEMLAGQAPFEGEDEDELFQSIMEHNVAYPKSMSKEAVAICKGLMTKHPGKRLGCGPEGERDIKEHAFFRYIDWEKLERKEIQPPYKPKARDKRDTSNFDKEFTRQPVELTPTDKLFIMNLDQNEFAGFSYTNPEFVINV

[13] = system: Serine/threonine-protein kinase N1 (Homo sapiens), Q16512 [V901I]; test: Inhibition of recombinant human PRK1 V901I mutant (498 to end residues) assessed as residual activity at 10 uM using KKLNRTLSFAEPG as substrate incubated for 40 mins in presence of [gamma33P]ATP by scintillation counting based radiometry assay relative to control
[14] = system: SNF-related serine/threonine-protein kinase (Homo sapiens), Q9NRH2 [UNDEFINED MUTATION]; test: Inhibition of human SNRK E97G/P116A mutant (65 to 409 residues) assessed as residual activity at 10 uM using KKLRRTLSFAEPG as substrate incubated for 40 mins in presence of [gamma33P]ATP by scintillation counting based radiometry assay relative to control
[15] = target: Proto-oncogene tyrosine-protein kinase Src (Homo sapiens) (UniProt P12931); test: Inhibition of recombinant human SRC (1 to 530 residues) assessed as residual activity at 10 uM using GGEEEEYFELVKK as substrate incubated for 40 mins in presence of [gamma33P]ATP by scintillation counting based radiometry assay relative to control
[16] = target: SRSF protein kinase 2 (Homo sapiens) (UniProt P78362); test: Inhibition of recombinant human SRPK2 (46 to end residues) assessed as residual activity at 10 uM using RSRSRSRSRSRSRSR as substrate incubated for 40 mins in presence of [gamma33P]ATP by scintillation counting based radiometry assay relative to control
[17] = target: Serine/threonine-protein kinase TAO2 (Homo sapiens) (UniProt Q9UL54); test: Inhibition of recombinant human TAO2 (1 to 320 residues) assessed as residual activity at 10 uM using myelin basic protein as substrate incubated for 40 mins in presence of [gamma33P]ATP by scintillation counting based radiometry assay relative to control
Serine/threonine-protein kinase TAO2 (Homo sapiens), sequence (Q9UL54 whole entry, the tested form may be a part): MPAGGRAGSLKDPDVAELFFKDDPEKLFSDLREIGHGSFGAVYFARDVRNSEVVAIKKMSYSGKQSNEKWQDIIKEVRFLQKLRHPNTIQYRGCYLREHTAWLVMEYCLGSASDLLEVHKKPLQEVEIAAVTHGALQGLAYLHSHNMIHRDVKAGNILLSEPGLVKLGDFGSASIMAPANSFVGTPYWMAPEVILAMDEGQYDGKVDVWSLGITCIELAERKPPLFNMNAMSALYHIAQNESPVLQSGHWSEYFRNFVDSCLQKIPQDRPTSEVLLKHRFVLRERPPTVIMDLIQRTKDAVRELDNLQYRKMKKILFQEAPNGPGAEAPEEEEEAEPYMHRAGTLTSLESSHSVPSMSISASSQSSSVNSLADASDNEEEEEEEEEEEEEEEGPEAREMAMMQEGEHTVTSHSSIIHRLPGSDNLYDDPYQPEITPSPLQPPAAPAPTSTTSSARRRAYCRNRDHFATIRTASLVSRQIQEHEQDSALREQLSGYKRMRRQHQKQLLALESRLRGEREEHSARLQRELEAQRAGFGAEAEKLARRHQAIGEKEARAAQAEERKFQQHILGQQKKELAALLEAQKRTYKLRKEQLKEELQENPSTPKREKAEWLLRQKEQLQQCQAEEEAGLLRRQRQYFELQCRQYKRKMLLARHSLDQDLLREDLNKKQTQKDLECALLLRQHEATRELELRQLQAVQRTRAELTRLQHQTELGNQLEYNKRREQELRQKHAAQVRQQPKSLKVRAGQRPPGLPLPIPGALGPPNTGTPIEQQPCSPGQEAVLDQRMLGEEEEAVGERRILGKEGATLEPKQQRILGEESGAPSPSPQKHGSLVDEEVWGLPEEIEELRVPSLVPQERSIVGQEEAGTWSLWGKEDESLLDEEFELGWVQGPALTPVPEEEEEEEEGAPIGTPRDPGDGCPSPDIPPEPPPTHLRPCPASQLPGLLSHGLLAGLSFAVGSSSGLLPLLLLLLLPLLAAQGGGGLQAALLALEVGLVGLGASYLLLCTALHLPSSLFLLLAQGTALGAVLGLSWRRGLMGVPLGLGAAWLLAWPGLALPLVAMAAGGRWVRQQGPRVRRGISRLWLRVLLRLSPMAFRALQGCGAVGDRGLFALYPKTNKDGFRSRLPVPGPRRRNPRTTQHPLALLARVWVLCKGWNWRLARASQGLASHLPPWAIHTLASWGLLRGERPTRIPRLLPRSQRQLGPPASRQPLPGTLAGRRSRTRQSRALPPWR

[18] = target: Serine/threonine-protein kinase TBK1 (Homo sapiens) (UniProt Q9UHD2); test: Inhibition of recombinant full length human TBK1 assessed as residual activity at 10 uM using KRRRALS(p)VASLPGL as substrate incubated for 40 mins in presence of [gamma33P]ATP by scintillation counting based radiometry assay relative to control
[19] = target: TGF-beta receptor type-2 (Homo sapiens) (UniProt P37173); test: Inhibition of recombinant human TGFBR2 (188 to end residues) assessed as residual activity at 10 uM using myelin basic protein as substrate incubated for 120 mins in presence of [gamma33P]ATP by scintillation counting based radiometry assay relative to control
[20] = target: Tyrosine-protein kinase Blk (Mus musculus) (UniProt P16277); test: Inhibition of recombinant full length mouse BLK assessed as residual activity at 10 uM using poly(Glu, Tyr) 4:1 as substrate incubated for 40 mins in presence of [gamma-33ATP] by scintillation counting based radiometry assay relative to control
[21] = target: Serine/threonine-protein kinase 3 (Homo sapiens, UniProt Q13188); test: Inhibition of recombinant human MST2 (2 to end residues) assessed as residual activity using myelin basic protein as substrate measured after 40 mins in presence of [gamma33P]ATP by scintillation counting based radiometry assay

BMP-2-inducible protein kinase (Homo sapiens), sequence (Q9NSY1 whole entry, looked up): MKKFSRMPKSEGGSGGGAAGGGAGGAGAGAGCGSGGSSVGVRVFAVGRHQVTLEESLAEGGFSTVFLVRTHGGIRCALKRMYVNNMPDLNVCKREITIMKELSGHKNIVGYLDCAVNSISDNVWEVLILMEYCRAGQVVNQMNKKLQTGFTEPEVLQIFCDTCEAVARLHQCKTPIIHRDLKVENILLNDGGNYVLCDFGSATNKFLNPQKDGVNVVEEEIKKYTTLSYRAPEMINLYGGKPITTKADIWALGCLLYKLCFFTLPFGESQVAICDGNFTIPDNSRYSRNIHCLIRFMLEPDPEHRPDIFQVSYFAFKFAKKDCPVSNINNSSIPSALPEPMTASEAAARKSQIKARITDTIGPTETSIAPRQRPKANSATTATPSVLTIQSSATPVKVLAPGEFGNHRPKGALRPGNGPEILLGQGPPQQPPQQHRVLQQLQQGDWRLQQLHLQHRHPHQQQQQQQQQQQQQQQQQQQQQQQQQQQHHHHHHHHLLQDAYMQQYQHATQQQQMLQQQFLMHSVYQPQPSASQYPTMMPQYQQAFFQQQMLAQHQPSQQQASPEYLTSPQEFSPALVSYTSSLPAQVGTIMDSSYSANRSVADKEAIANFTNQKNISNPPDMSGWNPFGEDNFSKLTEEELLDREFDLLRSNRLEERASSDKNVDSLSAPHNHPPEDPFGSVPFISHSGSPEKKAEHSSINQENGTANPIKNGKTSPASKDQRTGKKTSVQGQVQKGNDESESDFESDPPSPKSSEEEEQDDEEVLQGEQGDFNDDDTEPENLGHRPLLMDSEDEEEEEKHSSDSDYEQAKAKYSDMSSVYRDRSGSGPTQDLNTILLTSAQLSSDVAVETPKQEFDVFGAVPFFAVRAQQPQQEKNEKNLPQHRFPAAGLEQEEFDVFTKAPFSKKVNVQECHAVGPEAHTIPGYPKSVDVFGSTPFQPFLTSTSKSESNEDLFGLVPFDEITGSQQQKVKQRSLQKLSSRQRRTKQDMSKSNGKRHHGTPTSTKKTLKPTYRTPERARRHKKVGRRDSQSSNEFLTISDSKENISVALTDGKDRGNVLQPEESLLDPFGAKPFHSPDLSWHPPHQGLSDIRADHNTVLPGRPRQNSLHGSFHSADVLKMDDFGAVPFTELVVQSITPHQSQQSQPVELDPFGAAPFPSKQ

Question: For C[C@@H](c1ccccc1)n1nnc2cnc3ccc(-c4cnc5[nH]ccc5c4)cc3c21, which Activity [1] is on record?
Answer: Its Activity is 54%.

Question: And the Activity [2]?
Answer: Its Activity is 38%.

Question: And the Activity [3]?
Answer: The Activity was 89%.

Question: What about the Activity [4] of the same compound?
Answer: Its Activity is 73%.

Question: What about the Activity [5] of the same compound?
Answer: The Activity was 96%.

Question: What about the Activity [6] of the same compound?
Answer: Its Activity is 90%.

Question: What about the Activity [7] of the same compound?
Answer: The Activity was 95%.

Question: And the Activity [8]?
Answer: The Activity was 81%.

Question: And the Activity [9]?
Answer: The Activity was 105%.

Question: And the Activity [10]?
Answer: Its Activity is 94%.

Question: And the Activity [11]?
Answer: The Activity was 77%.

Question: And the Activity [12]?
Answer: The Activity was 93%.

Question: And the Activity [13]?
Answer: Its Activity is 60%.

Question: And the Activity [14]?
Answer: Its Activity is 76%.

Question: What about the Activity [15] of the same compound?
Answer: The Activity was 15%.

Question: What about the Activity [16] of the same compound?
Answer: Its Activity is 26%.

Question: And the Activity [17]?
Answer: The Activity was 85%.

Question: What about the Activity [18] of the same compound?
Answer: The Activity was 85%.

Question: What about the Activity [19] of the same compound?
Answer: The Activity was 87%.

Question: What about the Activity [20] of the same compound?
Answer: The Activity was 12%.

Question: And the IC50 [21]?
Answer: The IC50 was greater than 10 µM.
